Each structure is given as a SMILES string.

For this assay, the target named is T1, Recombinant Human ENPP-2/Autotaxin (Homo sapiens, UniProt Q13822).
T1 construct: purchased R&D systems 5255-EN
Description: LysoPLD activity measurement (autotaxin enzyme inhibition, choline release, TOOS reagent). Type of assay: biochemical. Conditions: LysoPLD inhibitory activity; substrate 14:0 LysoPC; absorbance at 555 nm. Here is the method: Such a measurement method is a method of measuring the amount of choline, which is a reaction product in an autotaxin enzyme reaction, using a TOOS reagent. Depending on the activity of the autotaxin inhibitor, the amount of choline produced as a reaction product varies, which affects the final absorbance.
After 30 min, 14:0 LysoPC of the substrate diluted to a concentration of 300 μM with the enzyme reaction buffer solution was dispensed into each well by 50 μL and allowed to stand at 37° C. for 90 minutes. At this time, negative control wells were dispensed with 1% DMSO, substrate, and autotaxin instead of the compound, and positive control wells were dispensed with 1% DMSO and substrate.
In the case of `O=C(O)c1cccc(Cn2c(=O)n(-c3ccc(C(=O)N4CCCCC4)cc3)c3cc(Cl)ccc32)c1F` [Example 57, 3-((5-chloro-2-oxo-3-(4-(piperidine-1-carbonyl)phenyl)-2,3-dihydro-1H-benzo[d]imidazol-1-yl)methyl)-2-fluorobenzoic acid], the IC50 (in general, the concentration that gives 50% inhibition) was below 0.01 µM.
Take `COC1CCN(C(=O)c2ccc(-n3c(=O)n(Cc4cccc(C(=O)O)c4)c4ccc(Cl)cc43)cc2)C1` (centres unmarked) [Example 59, 3-((5-chloro-3-(4-(3-methoxypyrrolidine-1-carbonyl)phenyl)-2-oxo-2,3-dihydro-1H-benzo[d]imidazol-1-yl)methyl)benzoic acid]: the IC50 lay within 0.01 to 0.1 µM.
With `CN1CCN(C(=O)c2ccc(-n3c(=O)n(Cc4cccc(C(=O)O)c4)c4ccc(Cl)cc43)cc2)CC1` [Example 60, 3-((5-chloro-3-(4-(4-methylpiperazine-1-carbonyl)phenyl)-2-oxo-2,3-dihydro-1H-benzo[d]imidazol-1-yl)methyl)benzoic acid], the IC50 is below 0.01 µM.
On to `O=C(O)c1cccc(Cn2c(=O)n(-c3ccc(C(=O)N4CCC(O)CC4)cc3)c3cc(Cl)ccc32)c1` [Example 61, 3-((5-chloro-3-(4-(4-hydroxypiperidin-1-carbonyl)phenyl)-2-oxo-2,3-dihydro-1H-benzo[d]imidazol-1-yl)methyl)benzoic acid], for which the IC50 is below 0.01 µM.
As for `COC1CCN(C(=O)c2ccc(-n3c(=O)n(Cc4cccc(C(=O)O)c4)c4ccc(Cl)cc43)cc2)CC1` [Example 62, 3-((5-chloro-3-(4-(4-methoxypiperidine-1-carbonyl)phenyl)-2-oxo-2,3-dihydro-1H-benzo[d]imidazol-1-yl)methyl)benzoic acid], the IC50 was below 0.01 µM.
With `O=C(O)c1cccc(C2(n3c(=O)n(-c4ccc(C(=O)N5CCCC5)cc4)c4cc(Cl)ccc43)CC2)c1` [Example 63, 3-(1-(5-chloro-2-oxo-3-(4-(pyrrolidine-1-carbonyl)phenyl)-2,3-dihydro-1H-benzo[d]imidazol-1-yl)cyclopropyl)benzoic acid], the IC50 was below 0.01 µM.
As for `O=C(O)c1cccc(C2(n3c(=O)n(-c4ccc(C(=O)N5CCCCC5)cc4)c4cc(Cl)ccc43)CC2)c1` [Example 64, 3-(1-(5-chloro-2-oxo-3-(4-(piperidin-1-carbonyl)phenyl)-2,3-dihydro-1H-benzo[d]imidazol-1-yl)cyclopropyl)benzoic acid], the IC50 is below 0.01 µM.
`CN(C)c1ccc(-n2c(=O)n(Cc3cc(F)cc(C(=O)O)c3)c3c(F)cc(Cl)cc32)cc1` [Example 65, 3-((5-chloro-3-(4-(dimethylamino)phenyl)-7-fluoro-2-oxo-2,3-dihydro-1H-benzo[d]imidazol-1-yl)methyl)-5-fluorobenzoic acid]: the IC50 lay within 0.01 to 0.1 µM.
As for `CN(C)c1ccc(-n2c(=O)n(Cc3cccc(C(=O)O)c3)c3c(F)cc(Cl)cc32)cc1` [Example 66, 3-((5-chloro-3-(4-(dimethylamino)phenyl)-7-fluoro-2-oxo-2,3-dihydro-1H-benzo[d]imidazol-1-yl)methyl)benzoic acid], the figure is 0.01 to 0.1 µM; as for `O=C(O)c1cccc(C2(n3c(=O)n(-c4ccc(C(=O)N5CCCC5)cc4)c4cc(Cl)ccc43)CC2)c1F` [Example 67, 3-(1-(5-chloro-2-oxo-3-(4-(pyrrolidine-1-carbonyl)phenyl)-2,3-dihydro-1H-benzo[d]imidazol-1-yl)cyclopropyl)-2-fluorobenzoic acid], below 0.01 µM; as for `O=C(O)c1cccc(C2(n3c(=O)n(-c4ccc(C(=O)N5CCCCC5)cc4)c4cc(Cl)ccc43)CC2)c1F` [Example 68, 3-(1-(5-chloro-2-oxo-3-(4-(piperidine-1-carbonyl)phenyl)-2,3-dihydro-1H-benzo[d]imidazol-1-yl)cyclopropyl)-2-fluorobenzoic acid], below 0.01 µM.
As for `CN(C)c1ccc(-n2c(=O)n(C3(c4cccc(C(=O)O)c4)CC3)c3ccc(Cl)cc32)cc1` [Example 69, 3-(1-(5-chloro-3-(4-(dimethylamino)phenyl)-2-oxo-2,3-dihydro-1H-benzo[d]imidazol-1-yl)cyclopropyl)benzoic acid], the IC50 was below 0.01 µM.
On to `CN(C)c1ccc(-n2c(=O)n(C3(c4cccc(C(=O)O)c4F)CC3)c3ccc(Cl)cc32)cc1` [Example 70, 3-(1-(5-chloro-3-(4-(dimethylamino)phenyl)-2-oxo-2,3-dihydro-JH-benzo[d]imidazol-1-yl)cyclopropyl)-2-fluorobenzoic acid], for which the IC50 is below 0.01 µM.
`CN(C)C(=O)c1ccc(-n2c(=O)n(C3(c4cccc(C(=O)O)c4)CC3)c3ccc(Cl)cc32)cc1` [Example 71, 3-(1-(5-chloro-3-(4-(dimethylcarbamoyl)phenyl)-2-oxo-2,3-dihydro-1H-benzo[d]imidazol-1-yl)cyclopropyl)benzoic acid]: the IC50 was below 0.01 µM.
Then `CN(C)C(=O)c1ccc(-n2c(=O)n(C3(c4cccc(C(=O)O)c4F)CC3)c3ccc(Cl)cc32)cc1` [Example 72, 3-(1-(5-chloro-3-(4-(dimethylcarbamoyl)phenyl)-2-oxo-2,3-dihydro-1H-benzo[d]imidazol-1-yl)cyclopropyl)-2-fluorobenzoic acid], with below 0.01 µM; and `CCOc1ccc(-n2c(=O)n(Cc3cccc(C(=O)O)c3)c3ccc(Cl)cc32)cn1` [Example 75, 3-((5-chloro-3-(6-ethoxypyridin-3-yl)-2-oxo-2,3-dihydro-1H-benzo[d]imidazol-1-yl)methyl)benzoic acid], with 0.1 to 1 µM.
Then `CCCOc1ccc(-n2c(=O)n(Cc3cccc(C(=O)O)c3)c3ccc(Cl)cc32)cn1` [Example 76, 3-((5-chloro-2-oxo-3-(6-propoxypyridin-3-yl)-2,3-dihydro-1H-benzo[d]imidazol-1-yl)methyl)benzoic acid], with 0.1 to 1 µM; and `O=C(O)c1cccc(Cn2c(=O)n(-c3ccc(N4CC(O)C4)nc3)c3cc(Cl)ccc32)c1` [Example 77, 3-((5-chloro-3-(6-(3-hydroxyazetidin-1-yl)pyridin-3-yl)-2-oxo-2,3-dihydro-1H-benzo[d]imidazol-1-yl)methyl)benzoic acid], with 0.1 to 1 µM.
In the case of `O=C(O)c1cccc(Cn2c(=O)n(-c3ccc(N4CCOCC4)nc3)c3cc(Cl)ccc32)c1` [Example 78, 3-((5-chloro-3-(6-morpholinopyridin-3-yl)-2-oxo-2,3-dihydro-1H-benzo[d]imidazol-1-yl)methyl)benzoic acid], the IC50 lay within 0.01 to 0.1 µM.
As for `CN(C)c1ccc(-n2c(=O)n(Cc3cccc(C(=O)O)c3)c3ccc(Cl)cc32)cn1` [Example 79, 3-((5-chloro-3-(6-(dimethylamino)pyridin-3-yl)-2-oxo-2,3-dihydro-1H-benzo[d]imidazol-1-yl)methyl)benzoic acid], the IC50 is 0.01 to 0.1 µM.
In the case of `O=C(O)c1cccc(Cn2c(=O)n(-c3ccc(N4CCC(F)(F)C4)nc3)c3cc(Cl)ccc32)c1` [Example 80, 3-((5-chloro-3-(6-(3,3-difluoropyrrolidin-1-yl)pyridin-3-yl)-2-oxo-2,3-dihydro-1H-benzo[d]imidazol-1-yl)methyl)benzoic acid], the IC50 was in the range of 0.1 to 1 µM.
Then `CN1CCN(c2ccc(-n3c(=O)n(Cc4cccc(C(=O)O)c4)c4ccc(Cl)cc43)cn2)CC1` [Example 81, 3-((5-chloro-3-(6-(4-methylpiperazin-1-yl)pyridin-3-yl)-2-oxo-2,3-dihydro-1H-benzo[d]imidazol-1-yl)methyl)benzoic acid], with 0.1 to 1 µM.
Turning to `O=C(O)c1cccc(Cn2c(=O)n(-c3ccc(N4CCC(F)(F)CC4)nc3)c3cc(Cl)ccc32)c1` [Example 82, 3-((5-chloro-3-(6-(4,4-difluoropiperidin-1-yl)pyridin-3-yl)-2-oxo-2,3-dihydro-1H-benzo[d]imidazol-1-yl)methyl)benzoic acid], the 50% inhibitory concentration (IC50) is 0.01 to 0.1 µM.
With `O=C(O)c1cccc(Cn2c(=O)n(-c3cnc(N4CCOCC4)nc3)c3cc(Cl)ccc32)c1` [Example 83, 3-((5-chloro-3-(2-morpholinopyrimidin-5-yl)-2-oxo-2,3-dihydro-1H-benzo[d]imidazol-1-yl)methyl)benzoic acid], the IC50 lay in the range of 0.1 to 1 µM.
On to `CCCn1cc(-n2c(=O)n(Cc3cccc(C(=O)O)c3)c3ccc(Cl)cc32)cn1` [Example 84, 3-((5-chloro-2-oxo-3-(1-propyl-1H-pyrazol-4-yl)-2,3-dihydro-1H-benzo[d]imidazol-1-yl)methyl)benzoic acid], for which the IC50 was 0.1 to 1 µM.
Regarding `O=C(O)c1cccc(Cn2c(=O)n(-c3cnn(C4CCOCC4)c3)c3cc(Cl)ccc32)c1` [Example 86, 3-((5-chloro-2-oxo-3-(1-(tetrahydro-2H-pyran-4-yl)-1H-pyrazol-4-yl)-2,3-dihydro-1H-benzo[d]imidazol-1-yl)methyl)benzoic acid], the IC50 is 0.1 to 1 µM.
`CCCn1cc(-n2c(=O)n(Cc3cccc(C(=O)O)c3)c3ccc(Cl)c(F)c32)cn1` [Example 88, 3-((5-chloro-4-fluoro-2-oxo-3-(1-propyl-1H-pyrazol-4-yl)-2,3-dihydro-1H-benzo[d]imidazol-1-yl)methyl)benzoic acid]: the IC50 is 0.01 to 0.1 µM.
With `CC(C)n1cc(-n2c(=O)n(Cc3cccc(C(=O)O)c3)c3ccc(Cl)cc32)cn1` [Example 89, 3-((5-chloro-3-(1-isopropyl-1H-pyrazol-4-yl)-2-oxo-2,3-dihydro-1H-benzo[d]imidazol-1-yl)methyl)benzoic acid], the IC50 lay in the range of 0.1 to 1 µM.
For the compound `O=C(O)c1cccc(Cn2c(=O)n(-c3cnn(CC4CC4)c3)c3cc(Cl)ccc32)c1` [Example 90, 3-((5-chloro-3-(1-cyclopropylmethyl-1H-pyrazol-4-yl)-2-oxo-2,3-dihydro-1H-benzo[d]imidazol-1-yl)methyl)benzoic acid], the IC50 was 0.1 to 1 µM.

The values above are taken from patent publication US20260265265A1, “NOVEL BENZIMIDAZOLONE DERIVATIVE COMPOUND AS AUTOTAXIN INHIBITOR” (LG CHEM, LTD., priority 2023, published 2026).
